Tests used:
[1] = target: T1, human GIP receptor (hGIP-R) (Homo sapiens, UniProt P48546); assay: cAMP response (HTRF) of HEK-293 cells stably expressing human GIP receptor; format: cell-based; settings: Table 8; cAMP formation
T1 construct: expressed in transfected cells; host or cells: HEK-293
T1 sequence (P48546 22-466): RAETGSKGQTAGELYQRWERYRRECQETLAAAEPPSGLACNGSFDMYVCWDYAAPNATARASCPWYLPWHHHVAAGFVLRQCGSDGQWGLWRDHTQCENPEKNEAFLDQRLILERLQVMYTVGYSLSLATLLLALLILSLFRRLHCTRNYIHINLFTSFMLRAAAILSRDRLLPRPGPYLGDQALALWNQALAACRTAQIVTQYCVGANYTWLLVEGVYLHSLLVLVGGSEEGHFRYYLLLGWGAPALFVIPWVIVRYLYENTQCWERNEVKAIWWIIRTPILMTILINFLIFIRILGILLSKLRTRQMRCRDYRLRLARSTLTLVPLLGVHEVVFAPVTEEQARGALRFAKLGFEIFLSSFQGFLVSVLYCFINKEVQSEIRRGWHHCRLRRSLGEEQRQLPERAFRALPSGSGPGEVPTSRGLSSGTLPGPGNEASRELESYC
Procedure, shortened: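 HEK-293 cells stably expressing the receptor, resuspended in HBSS/20 mM HEPES/0.1% BSA/2 mM IBMX at 400000 cells/ml, were exposed to increasing concentrations of peptide for 30 minutes at room temperature. Formed cAMP was measured by HTRF to give potency.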

[2] = system: female, diabetic db/db mice; assay: Acute effects after subcutaneous treatment on blood glucose in non-fasting diabetic db/db mice; format: in vivo, mouse
Experimental: Female healthy, lean BKS.Cg-(lean)/OlaHsd and diabetes-prone, obese BKS.Cg-+Lepr^db/+Lepr^db/OlaHsd mice were ordered group housed from Envigo RMS Inc., shipped group housed and remained group housed in shoebox caging with wood chip bedding until day 15 of the predose phase. At the study start mice were approximately 12 weeks old.
Mice were housed under vivarium conditions including a 12 h light/dark cycle (light phase 04:00 AM-4:00 PM), room temperatures between 23-26° C. and a relative humidity between 30-70%. All animals had free access to water and Purina Fomulab Diet 5008.
On predose day 9 blood glucose and body mass (approximately between 08:00-10:00 AM) as well as HbA1c measurements were performed. On day 15 of the predose phase animals were assigned to treatment groups (n=8) and to new cages to match mean HbA1c and body masses between all db/db groups. An age-matched lean group was included in the study as a healthy, lean reference.
Prior to day 1 of the dosing phase, the test article was diluted with Phosphate Buffered Saline (PBS, Gibco, without CaCl2 and MgCl2) to a concentration of 1 mg/mL and aliquots of this stock solution were stored at approximately −60° C. On day 1 of the dosing phase the stock aliquot was thawed and the injected test article solution was prepared fresh by diluting it with PBS to achieve the desired concentration.
On Day 1 of the dosing phase db/db mice were either treated once with a s.c. injection of PBS-vehicle or 30 μg/kg test article. The lean reference group was treated once with a s.c. injection of PBS-vehicle. The dosing was initiated and completed between 08:00 and 10:00 AM. The applied volume was 5 ml/kg and the dose was adjusted to the most recent body mass recording of each individual.
Animals had unlimited access to water and feed during the experiment. On day 1 of the dosing phase approximately 5 μL of blood were collected via tail clips at minute −30 and 0 prior to any other inlife activities. At minute 0 mice received a s.c. dose of either PBS-vehicle or 30 μg/kg test article. Further blood samples were harvested at hour 0.25, 0.5, 1, 1.5, 2, 3, 4, 6, 8, and 24 post-dose. Glucose measurements were performed in whole blood using AlphaTRAK glucometers. If the glucose concentrations of two measurements differed by more than 20 mg/dL a third value was recorded. The Area Under the Curve (AUC) for blood glucose was calculated via the trapezoid method and for the duration of the 24 post-dose hours.
Data are depicted as means±SEM. […] A One-Way ANOVA and Tukey Test were used for pairwise multiple comparisons of all groups (n=8/group, deviations from group size are indicated). […] Data from a Non-Diabetic-Vehicle group serve as a reference dataset for the normoglycemic, lean state.
Female, 12 weeks old, healthy, lean BKS.Cg-(lean)/OlaHsd or diabetes-prone, obese BKS.Cg-+Leprdb/+Leprdb/OlaHsd mice were treated once with a s.c. injection of PBS, 30 μg/kg SEQ ID NO: 6 or 30 μg/kg SEQ ID NO: 7. The dosing was initiated and completed between 08:00 and 10:00 AM. The applied volume was 5 ml/kg and the dose was adjusted to the most recent body mass recording of each individual. Diabetic db/db mice were HbA1c- and body mass-matched. The lean reference group was treated once with a s.c. injection of PBS-vehicle.
Animals had unlimited access to water and feed during the experiment. On day 1 of the dosing phase approximately 5 μL of blood were collected via tail clips at minute −30 and 0 prior to any other inlife activities. At minute 0 mice received a s.c. dose of either PBS-vehicle, 30 μg/kg SEQ ID NO: 6 or SEQ ID NO: 7. Further blood samples were harvested at minute 15, 30, 60, 90, 120, 150, 180, 240, 360, and 480 post-dose. Glucose measurements were performed in whole blood using AlphaTRAK glucometers. If the glucose concentrations of two measurements differed by more than 20 mg/dL a third value was recorded. […]

## CCCCCCCCCCCCCCCC(=O)N[C@@H](CCC(=O)N[C@@H](CCC(=O)NCCCC[C@H](NC(=O)[C@H](CC(C)C)NC(=O)[C@H](CCCCN)NC(=O)[C@H](CO)NC(=O)[C@H](CC(C)C)NC(=O)[C@H](CC(=O)O)NC(=O)[C@H](CO)NC(=O)[C@@H](NC(=O)[C@H](Cc1ccccc1)NC(=O)[C@@H](NC(=O)CNC(=O)[C@H](CCC(N)=O)NC(=O)C(C)(C)NC(=O)[C@@H](N)Cc1c[nH]cn1)[C@@H](C)O)[C@@H](C)O)C(=O)N[C@@H](CCC(=O)O)C(=O)N[C@@H](CCCCN)C(=O)N[C@@H](CCC(N)=O)C(=O)N[C@@H](CCCNC(=N)N)C(=O)N[C@@H](CCC(N)=O)C(=O)NC(C)(C)C(=O)N[C@@H](CCC(=O)O)C(=O)N[C@@H](Cc1ccccc1)C(=O)N[C@H](C(=O)N[C@@H](CCC(=O)O)C(=O)N[C@@H](Cc1c[nH]c2ccccc12)C(=O)N[C@@H](CC(C)C)C(=O)N[C@@H](CCCCN)C(=O)N[C@@H](C)C(=O)NCC(=O)NCC(=O)N1CCC[C@H]1C(=O)N1CCC[C@H]1C(=O)N[C@@H](CO)C(=O)NC(C)(C)C(=O)N[C@@H](CCCCN)C(=O)N1CCC[C@H]1C(=O)N1CCC[C@H]1C(=O)N1CCC[C@H]1C(=O)N[C@@H](CCCCN)C(N)=O)[C@@H](C)CC)C(=O)O)C(=O)O [SEQ ID NO: 6, H-Aib-Q-G-T-F-T-S-D-L-S-K-L-K[gGlu-gGlu-Palm]-E-K-Q-R-Q-Aib-E-F-I-E-W-L-K-A-G-G-P-P-S-Aib-K-P-P-P-K-NH2]
[1]
  EC50: 7.9 pM
[2]; 30 μg/kg s.c. once, 24 h, in words
  Blood glucose AUC compared to the Diabetic-Vehicle group: statistically significant reduction in the blood glucose AUC
[2]; 30 μg/kg s.c. once, fed db/db mice
  Time post dose at which lowest blood glucose levels were reached: approximately 8 hours
[2]; 30 μg/kg s.c. once, fed db/db mice, in words
  Blood glucose profile following single treatment: acute decrease in blood glucose concentrations
[2]; Table 10, once 30 μg/kg s.c., fed db/db mice, mean ± SEM
  Plasma glucose area under the curve (mmol/L in 24 h): +430.70 ± 26.41 mmol/L in 24 h

Source: US10519211B2, “Compounds as peptidic GLP1/glucagon/GIP receptor agonists” (SANOFI, priority 2016, dated 2019)
